Measurements published in US7709473B2, “Substituted 2H-[1,2,4]triazolo[4,3-a]pyrazines as GSK-3 inhibitors” (Pfizer Inc., priority 2004, dated 2010).

Target: GSK-3 (Homo sapiens, UniProt P49841)
Assay: GSK-3 inhibition, cell-free 33P-ATP peptide substrate SPA assay
Format: biochemical
Details: read-out: inhibitory activity against GSK-3, expressed as IC50
Description: The specific activities of the compounds of formula (I) in inhibiting GSK-3 can be determined in both cell-free and cell-based assays, both of which have been previously described in the relevant art. See, for example, U.S. Pat. Nos. 6,417,185 and 6,489,344, the disclosures of which are incorporated herein by reference in their entirety.
A cell-free testing assay can be generally carried out by incubating GSK-3 with a peptide substrate, radiolabeled ATP (e.g., for example, γ^33P- or γ^32P-ATP, both of which are available from Amersham; Arlington Heights, Ill.), magnesium ions, and the compound to be assayed. […] The amount of γ^33P or γ^32P remaining in each well after washing is then quantified to determine the amount of radiolabeled phosphate incorporated into the peptide substrate. […]
Another example of a GSK-3 testing assay, similar to the one described hereinabove, is as follows: enzyme activities are assayed as the incorporation of ^33P from the gamma phosphate of ^33P-ATP (Amersham; Arlington Heights, Ill.; catalog #AH-9968) into biotinylated peptide substrate PKTP-KKAKKL. […] The final concentration of ATP is 0.5 μM (final specific radioactivity of 4 μCi/nmol), and the final concentration of substrate is 0.75 μM. […] Radioactivity associated with the beads is then quantified by standard scintillation counting. […]

Chain of GSK-3 (P49841 whole entry): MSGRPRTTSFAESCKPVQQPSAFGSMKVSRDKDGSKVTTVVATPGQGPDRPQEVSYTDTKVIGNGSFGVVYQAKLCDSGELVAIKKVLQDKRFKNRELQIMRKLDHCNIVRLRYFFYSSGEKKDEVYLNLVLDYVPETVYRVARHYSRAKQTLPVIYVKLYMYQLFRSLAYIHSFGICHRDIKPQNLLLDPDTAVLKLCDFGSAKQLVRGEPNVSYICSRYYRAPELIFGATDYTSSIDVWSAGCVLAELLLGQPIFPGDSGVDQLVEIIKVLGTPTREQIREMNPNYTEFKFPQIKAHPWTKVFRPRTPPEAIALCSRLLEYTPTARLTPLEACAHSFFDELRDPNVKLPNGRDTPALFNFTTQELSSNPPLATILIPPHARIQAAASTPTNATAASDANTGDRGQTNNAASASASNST

How did the IC50 turn out when `COc1ccc(OCCNc2nc(C(C)(C)C)cn3c(=O)[nH]nc23)cc1` [Example 218, 6-tert-Butyl-8-[2-(4-methoxy-phenoxy)-ethylamino]-2H-[1,2,4]triazolo[4,3-a]pyrazin-3-one] was run?
Its IC50 is 4.84 nM.
